{"source": "patent US6914045B2", "about": "“Glycopeptide antibiotics” (Wyeth Holdings Corporation, priority 2001, dated 2005)", "assay_in_all_cases": "in vitro antibacterial evaluation, MIC by broth dilution", "format_in_all_cases": "cell-based", "key": {"[1]": {"system": "Staphylococcus sp.", "details": "broth dilution, 18 hours at 35° C.; for MIC Staphylococcus aureus (GC 1131): strain GC 1131", "method_in_brief": "(§1)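 Inoculum 5×10^5 CFU/mL; concentrations 64 to 0.06 μg/mL; MIC defined as lowest inhibitory level. Conducted by broth dilution under NCCLS guidelines.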"}, "[2]": {"system": "Streptococcus sp.", "details": "broth dilution, 18 hours at 35° C.; for MIC Streptococcus pneumoniae (ATCC 6301): strain ATCC 6301; for MIC Streptococcus pneumoniae (GC 1894): strain GC 1894; for MIC Streptococcus pyogenes (GC 4563): strain GC 4563; for MIC Streptococcus agalactiae (GC 4564): strain GC 4564; for MIC Streptococcus pneumoniae (GC 4565): strain GC 4565", "method_in_brief": "as §1"}, "[3]": {"system": "Enterococcus sp.", "details": "broth dilution, 18 hours at 35° C.; for MIC Enterococcus faecalis (ATCC 29212): strain ATCC 29212; for MIC Enterococcus faecalis (GC 2242): strain GC 2242; for MIC Enterococcus faecium (GC 2243): strain GC 2243; for MIC Enterococcus faecalis (GC 2691): strain GC 2691; for MIC Enterococcus faecalis (GC 3059): strain GC 3059; for MIC Enterococcus faecalis (GC 4552): strain GC 4552; for MIC Enterococcus faecalis (GC 4553): strain GC 4553; for MIC Enterococcus faecalis (GC 4554): strain GC 4554; for MIC Enterococcus faecium (GC 4556): strain GC 4556; for MIC Enterococcus faecium (GC 4557): strain GC 4557; for MIC Enterococcus avium (GC 4558): strain GC 4558; for MIC Enterococcus faecalis (GC 6189): strain GC 6189", "method_in_brief": "as §1"}, "[4]": {"system": "Escherichia coli", "method_in_brief": "as §1"}}, "data": [{"smiles": "CSc1ccc(C2OCC3OC(OC4C(CO)OC(Oc5ccc(CC6NC(=O)C(C(C)c7ccccc7)NC(=O)CNC(=O)C(CO)NC(=O)C(C(O)C7CNC(=N)N7C7OC(CO)C(O)C(O)C7O)NC(=O)C(C(O)C7CNC(=N)N7)NC6=O)cc5)C(O)C4O)C(O)C(O)C3O2)cc1[N+](=O)[O-]", "note": "(stereo not shown) [Example 168]", "values": [{"measurement": "MIC Staphylococcus aureus (GC 1131)", "setting": "[1]; inoculum 5×10^5 CFU/mL", "result": 1, "unit": "µg/mL"}, {"measurement": "MIC Staphylococcus aureus (ATCC 29213)", "setting": "[1]; strain ATCC 29213", "result": 1, "unit": "µg/mL"}, {"measurement": "MIC Staphylococcus aureus (GC 1131)", "setting": "[1]", "result": 1, "unit": "µg/mL"}, {"measurement": "MIC Staphylococcus aureus (GC 3051)", "setting": "[1]; strain GC 3051", "result": 1, "unit": "µg/mL"}, {"measurement": "MIC Staphylococcus aureus (GC 3053)", "setting": "[1]; strain GC 3053", "result": 1, "unit": "µg/mL"}, {"measurement": "MIC Staphylococcus aureus (GC 4541)", "setting": "[1]; strain GC 4541", "result": 1, "unit": "µg/mL"}, {"measurement": "MIC Staphylococcus aureus (GC 4542)", "setting": "[1]; strain GC 4542", "result": 1, "unit": "µg/mL"}, {"measurement": "MIC Staphylococcus aureus-SMITH (GC 4543)", "setting": "[1]; strain GC 4543", "result": 1, "unit": "µg/mL"}, {"measurement": "MIC Staphylococcus aureus (GC 4544)", "setting": "[1]; strain GC 4544", "result": 2, "unit": "µg/mL"}, {"measurement": "MIC Staphylococcus aureus (GC 4545)", "setting": "[1]; strain GC 4545", "result": 1, "unit": "µg/mL"}, {"measurement": "MIC Staphylococcus haemolyticus (GC 4546)", "setting": "[1]; strain GC 4546", "result": 0.5, "unit": "µg/mL"}, {"measurement": "MIC Coagulase Negative Staphylococcus (GC 4547)", "setting": "[1]; strain GC 4547", "result": 2, "unit": "µg/mL"}, {"measurement": "MIC Coagulase Negative Staphylococcus (GC 4548)", "setting": "[1]; strain GC 4548", "result": 0.5, "unit": "µg/mL"}, {"measurement": "MIC Coagulase Negative Staphylococcus (GC 4549)", "setting": "[1]; strain GC 4549", "result": 0.5, "unit": "µg/mL"}, {"measurement": "MIC Coagulase Negative Staphylococcus (GC 4551)", "setting": "[1]; strain GC 4551", "result": 1, "unit": "µg/mL"}, {"measurement": "MIC Streptococcus pneumoniae (ATCC 6301)", "setting": "[2]; inoculum 5×10^5 CFU/mL", "result": "<0.12", "unit": "µg/mL"}, {"measurement": "MIC Streptococcus pneumoniae (GC 1894)", "setting": "[2]; inoculum 5×10^5 CFU/mL", "result": "<0.12", "unit": "µg/mL"}, {"measurement": "MIC Streptococcus pyogenes (GC 4563)", "setting": "[2]; inoculum 5×10^5 CFU/mL", "result": 0.5, "unit": "µg/mL"}, {"measurement": "MIC Streptococcus agalactiae (GC 4564)", "setting": "[2]; inoculum 5×10^5 CFU/mL", "result": "<0.12", "unit": "µg/mL"}, {"measurement": "MIC Streptococcus pneumoniae (GC 4565)", "setting": "[2]; inoculum 5×10^5 CFU/mL", "result": "<0.12", "unit": "µg/mL"}, {"measurement": "MIC Streptococcus pneumoniae (ATCC 6301)", "setting": "[2]", "result": "<0.12", "unit": "µg/mL"}, {"measurement": "MIC Streptococcus pneumoniae (GC 1894)", "setting": "[2]", "result": "<0.12", "unit": "µg/mL"}, {"measurement": "MIC Streptococcus pyogenes (GC 4563)", "setting": "[2]", "result": 0.5, "unit": "µg/mL"}, {"measurement": "MIC Streptococcus agalactiae (GC 4564)", "setting": "[2]", "result": "<0.12", "unit": "µg/mL"}, {"measurement": "MIC Streptococcus pneumoniae (GC 4565)", "setting": "[2]", "result": "<0.12", "unit": "µg/mL"}, {"measurement": "MIC Enterococcus faecalis (ATCC 29212)", "setting": "[3]; inoculum 5×10^5 CFU/mL", "result": 2, "unit": "µg/mL"}, {"measurement": "MIC Enterococcus faecalis (GC 2242)", "setting": "[3]; inoculum 5×10^5 CFU/mL", "result": 2, "unit": "µg/mL"}, {"measurement": "MIC Enterococcus faecium (GC 2243)", "setting": "[3]; inoculum 5×10^5 CFU/mL", "result": 2, "unit": "µg/mL"}, {"measurement": "MIC Enterococcus faecalis (GC 2691)", "setting": "[3]; inoculum 5×10^5 CFU/mL", "result": 2, "unit": "µg/mL"}, {"measurement": "MIC Enterococcus faecalis (GC 3059)", "setting": "[3]; inoculum 5×10^5 CFU/mL", "result": 2, "unit": "µg/mL"}, {"measurement": "MIC Enterococcus faecalis (GC 4552)", "setting": "[3]; inoculum 5×10^5 CFU/mL", "result": 2, "unit": "µg/mL"}, {"measurement": "MIC Enterococcus faecalis (GC 4553)", "setting": "[3]; inoculum 5×10^5 CFU/mL", "result": 2, "unit": "µg/mL"}, {"measurement": "MIC Enterococcus faecalis (GC 4554)", "setting": "[3]; inoculum 5×10^5 CFU/mL", "result": 2, "unit": "µg/mL"}, {"measurement": "MIC Enterococcus faecium (GC 4556)", "setting": "[3]; inoculum 5×10^5 CFU/mL", "result": 2, "unit": "µg/mL"}, {"measurement": "MIC Enterococcus faecium (GC 4557)", "setting": "[3]; inoculum 5×10^5 CFU/mL", "result": 1, "unit": "µg/mL"}, {"measurement": "MIC Enterococcus avium (GC 4558)", "setting": "[3]; inoculum 5×10^5 CFU/mL", "result": 2, "unit": "µg/mL"}, {"measurement": "MIC Enterococcus faecalis (GC 6189)", "setting": "[3]; inoculum 5×10^5 CFU/mL", "result": 2, "unit": "µg/mL"}, {"measurement": "MIC Enterococcus faecalis (ATCC 29212)", "setting": "[3]", "result": 2, "unit": "µg/mL"}, {"measurement": "MIC Enterococcus faecalis (GC 2242)", "setting": "[3]", "result": 2, "unit": "µg/mL"}, {"measurement": "MIC Enterococcus faecium (GC 2243)", "setting": "[3]", "result": 2, "unit": "µg/mL"}, {"measurement": "MIC Enterococcus faecalis (GC 2691)", "setting": "[3]", "result": 2, "unit": "µg/mL"}, {"measurement": "MIC Enterococcus faecalis (GC 3059)", "setting": "[3]", "result": 2, "unit": "µg/mL"}, {"measurement": "MIC Enterococcus faecalis (GC 4552)", "setting": "[3]", "result": 2, "unit": "µg/mL"}, {"measurement": "MIC Enterococcus faecalis (GC 4553)", "setting": "[3]", "result": 2, "unit": "µg/mL"}, {"measurement": "MIC Enterococcus faecalis (GC 4554)", "setting": "[3]", "result": 2, "unit": "µg/mL"}, {"measurement": "MIC Enterococcus faecium (GC 4556)", "setting": "[3]", "result": 2, "unit": "µg/mL"}, {"measurement": "MIC Enterococcus faecium (GC 4557)", "setting": "[3]", "result": 1, "unit": "µg/mL"}, {"measurement": "MIC Enterococcus avium (GC 4558)", "setting": "[3]", "result": 2, "unit": "µg/mL"}, {"measurement": "MIC Enterococcus faecalis (GC 6189)", "setting": "[3]", "result": 2, "unit": "µg/mL"}, {"measurement": "MIC Escherichia coli (ATCC 25922)", "setting": "[4]; strain ATCC 25922, 18 hours at 35° C.", "result": 64, "unit": "µg/mL"}, {"measurement": "MIC Escherichia coli (GC 4559)", "setting": "[4]; strain GC 4559, 18 hours at 35° C.", "result": 16, "unit": "µg/mL"}, {"measurement": "MIC Escherichia coli (GC 4560)", "setting": "[4]; strain GC 4560, 18 hours at 35° C.", "result": 0.5, "unit": "µg/mL"}]}]}
